{"source": "patent US11339171B2", "about": "“MDM2 inhibitors” (Gan & Lee Pharmaceuticals, priority 2017, dated 2022)", "key": {"[1]": {"tested_on": "human osteosarcoma cell line SJSA-1", "test": "Inhibition of proliferation of human osteosarcoma cell line SJSA-1 (DAPI staining, In Cell Analyzer)", "details": "Homo sapiens, SJSA-1, 72 h, read-out: IC50 (nM), inhibitory activity on proliferation of human osteosarcoma cell line SJSA-1, SJSA-1, incubated 72 h"}, "[2]": {"test": "Pharmacokinetics in ICR mice after intravenous and intragastric administration", "type": "in vivo", "details": "for MRT last: read-out: MRT(0-t); for MRT inf: read-out: MRT(0-∞); for Vd: read-out: Vz", "method": "Experimental Example 3 Determination of the Pharmacokinetics of the Mdm2 Inhibitors of the Present Invention in Mice\nICR mice were used as the test animals, and the concentrations of the drugs in plasma of mice at different time points after intravenous administration and intragastric administration of the representative compounds were measured by a LC/MS/MS method, so as to study the pharmacokinetic behavior of the compounds of the present invention in mice and evaluate the pharmacokinetic characteristics thereof.\nSome compounds prepared in Examples 1-180 of the present invention.\nThe control drug HDM201 was prepared by the method disclosed in patent No. CN104203952A.\nHealthy adult ICR mice, male, 6-9 weeks old, weighing 20-30 g, purchased from Shanghai Xipuer-Bikai Laboratory Animal Co., Ltd., Animal Production License No.: SCXK (HU) 2013-0016\n3.2.3 Preparation of Test Drugs\nIntragastric or intravenous administration: an appropriate amount of sample was weighed, dissolved in 5% DMSO+40% PEG400+55% (10% HP-β-CD in Saline) to prepare a 0.5 mg/ml solution for intragastric or intravenous administration.\n3.2.4 Administration of Test Drugs\nIntravenous administration: for each test compound, 3 male ICR mice were administered intravenously at a dose of 2 mg/kg and an administration volume of […] after fasting overnight.\nIntragastric administration: for each test compound, 3 male ICR mice were administered intragastrically at a dose of 5 mg/kg and an administration volume of […] after fasting overnight.\n3.3 Experimental Operation\nThe collected plasma was stored at −80° C. before analysis. The plasma sample was analyzed by LC-MS/MS, and the sample was pretreated by protein precipitation method. The linear range of sample analysis was 1 to 2000 ng/ml. The lowest quantification limit was 1 ng/mL. WinNonlin (Pharsight, USA) was used to calculate the following pharmacokinetic parameters: area under the curve AUC(0-t), area under the curve AUC(0-∞), half-life t1/2, retention time MRT(0-∞), blood drug concentration Cmax, time taken to reach the peak blood drug concentration Tmax, bioavailability F, apparent volume of distribution Vz, and clearance rate CL."}, "MDM2": {"target": "T1, MDM2 (Homo sapiens, UniProt Q00987)", "T1 construct": "made in house", "T1 sequence (Q00987 whole entry)": "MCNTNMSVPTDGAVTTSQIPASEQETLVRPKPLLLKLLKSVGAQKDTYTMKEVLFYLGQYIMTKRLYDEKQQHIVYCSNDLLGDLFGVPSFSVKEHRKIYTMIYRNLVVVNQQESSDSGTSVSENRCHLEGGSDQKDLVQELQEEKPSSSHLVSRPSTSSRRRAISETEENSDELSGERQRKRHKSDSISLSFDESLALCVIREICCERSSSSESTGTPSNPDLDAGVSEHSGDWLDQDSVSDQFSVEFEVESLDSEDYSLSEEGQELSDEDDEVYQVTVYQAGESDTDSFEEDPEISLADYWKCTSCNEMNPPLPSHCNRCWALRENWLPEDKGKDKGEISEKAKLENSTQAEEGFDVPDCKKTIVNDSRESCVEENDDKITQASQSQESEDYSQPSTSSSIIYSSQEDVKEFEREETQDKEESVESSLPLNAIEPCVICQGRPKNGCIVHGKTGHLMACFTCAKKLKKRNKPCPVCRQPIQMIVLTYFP", "test": "Inhibition test of MDM2-P53 (GST-MDM2, Biotin-P53, Anti-GST-Tb, SA-XL665)", "type": "binding", "method_in_brief": "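Binding was measured by TR-FRET with GST-MDM2 at 4 nM final in PBS with 0.1% BSA, 5 mM DTT and 1 mM AEBSF. Compounds were tested as twelve-point 5-fold dilutions and incubated with the detection mix for 90 min at 25 °C with shaking before plate-reader reading and curve fitting.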"}, "[3]": {"details": "ICR mice, IV 2 mg/kg, individual animal, 2 mg/kg"}, "[4]": {"details": "ICR mice, PO 5 mg/kg, individual animal, 5 mg/kg"}, "[5]": {"details": "male, ICR, mouse, plasma, iv, 2 mg/kg, ICR mice, IV 2 mg/kg, individual animal"}, "[6]": {"details": "male, ICR, mouse, plasma, iv, 2 mg/kg, ICR mice, IV 2 mg/kg, mean of 3 animals"}, "[7]": {"details": "male, ICR, mouse, plasma, po, 5 mg/kg, ICR mice, PO 5 mg/kg, individual animal"}, "[8]": {"details": "male, ICR, mouse, plasma, po, 5 mg/kg, ICR mice, PO 5 mg/kg, mean of 3 animals"}}, "note": "Several values for one entry are separate records, joined by “and”; a condition that tells them apart may be missing. Identical values can stand only once. Like-named read-outs stand apart in the source and are kept apart here."}
{"compound": "COc1ccc(-c2nc3c(n2C(C)C)[C@@]2(C(=O)Nc4cc(Cl)ccc42)N(c2cc(Cl)cnc2C)C3=O)c(OC)c1", "note": "[Example S-61, (S)-6-chloro-5′-(5-chloro-2-methylpyridin-3-yl)-2′-(2,4-dimethoxyphenyl)-3′-isopropyl-3′H-spiro[dihydroindole-3,4′-pyrrolo[3,4-d]imidazole]-2,6′(5′H)-dione]", "values": [{"measurement": "IC50", "setting": "[1]", "result": 5.5, "unit": "nM"}, {"measurement": "AUC(0-t)", "setting": "[2]; [3]", "result": "5346.76 ng·h/mL and 4640.74 ng·h/mL"}, {"measurement": "AUC(0-∞)", "setting": "[2]; [3]", "result": "5483.62 ng·h/mL and 4724.28 ng·h/mL"}, {"measurement": "CL", "setting": "[2]; [3]", "result": "6.08 mL/min/kg and 7.06 mL/min/kg"}, {"measurement": "Cmax", "setting": "[2]; [3]", "result": "3244.96 ng/mL and 2994.43 ng/mL"}, {"measurement": "MRT(0-t)", "setting": "[2]; [3]", "result": "1.26 h and 1.21 h"}, {"measurement": "MRT(0-∞)", "setting": "[2]; [3]", "result": "1.42 h and 1.32 h"}, {"measurement": "Vz", "setting": "[2]; [3]", "result": "0.60 L/kg and 0.67 L/kg"}, {"measurement": "t1/2", "setting": "[2]; [3]", "result": "1.15 h and 1.09 h"}, {"measurement": "AUC(0-t)", "setting": "[2]; [4]", "result": "2462.65 ng·h/mL and 4960.30 ng·h/mL and 3162.34 ng·h/mL"}, {"measurement": "AUC(0-∞)", "setting": "[2]; [4]", "result": "5500.70 ng·h/mL and 3530.81 ng·h/mL"}, {"measurement": "Cmax", "setting": "[2]; [4]", "result": "2489.40 ng/mL and 1772.67 ng/mL"}, {"measurement": "MRT(0-t)", "setting": "[2]; [4]", "result": "2.03 h and 1.91 h"}, {"measurement": "MRT(0-∞)", "setting": "[2]; [4]", "result": 3.00, "unit": "h"}, {"measurement": "Tmax", "setting": "[2]; [4]", "result": 0.50, "unit": "h"}, {"measurement": "t1/2", "setting": "[2]; [4]", "result": "2.71 h and 2.98 h"}, {"measurement": "AUC(0-inf)", "setting": "[2]; [5]", "result": 3630, "unit": "ng·h/mL"}, {"measurement": "clearance", "setting": "[2]; [5]", "result": 9.19, "unit": "mL/min/kg"}, {"measurement": "AUC(0-t)", "setting": "[2]; male, ICR, mouse, plasma, iv, 2 mg/kg, ICR mice, IV 2 mg/kg, individual animal, read-out: AUC(0-t)", "result": 3580, "unit": "ng·h/mL"}, {"measurement": "Cmax", "setting": "[2]; male, ICR, mouse, plasma, iv, 2 mg/kg, ICR mice, IV 2 mg/kg, individual animal, read-out: Cmax", "result": 3250, "unit": "ng/mL"}, {"measurement": "MRT last", "setting": "[2]; [5]", "result": 0.99, "unit": "h"}, {"measurement": "MRT inf", "setting": "[2]; [5]", "result": 1.07, "unit": "h"}, {"measurement": "Tmax", "setting": "[2]; male, ICR, mouse, plasma, iv, 2 mg/kg, ICR mice, IV 2 mg/kg, individual animal, read-out: Tmax", "result": 0.08, "unit": "h"}, {"measurement": "Vd", "setting": "[2]; [5]", "result": 0.8, "unit": "L/kg"}, {"measurement": "half-life", "setting": "[2]; male, ICR, mouse, plasma, iv, 2 mg/kg, ICR mice, IV 2 mg/kg, individual animal, read-out: t1/2 (converted)", "result": 1, "unit": "h"}, {"measurement": "AUC(0-inf)", "setting": "[2]; [6]", "result": 4610, "unit": "ng·h/mL"}, {"measurement": "clearance", "setting": "[2]; [6]", "result": 7.44, "unit": "mL/min/kg"}, {"measurement": "AUC(0-t)", "setting": "[2]; male, ICR, mouse, plasma, iv, 2 mg/kg, ICR mice, IV 2 mg/kg, mean of 3 animals, read-out: AUC(0-t)", "result": 4520, "unit": "ng·h/mL"}, {"measurement": "Cmax", "setting": "[2]; male, ICR, mouse, plasma, iv, 2 mg/kg, ICR mice, IV 2 mg/kg, mean of 3 animals, read-out: Cmax", "result": 3160, "unit": "ng/mL"}, {"measurement": "MRT last", "setting": "[2]; [6]", "result": 1.15, "unit": "h"}, {"measurement": "MRT inf", "setting": "[2]; [6]", "result": 1.27, "unit": "h"}, {"measurement": "Tmax", "setting": "[2]; male, ICR, mouse, plasma, iv, 2 mg/kg, ICR mice, IV 2 mg/kg, mean of 3 animals, read-out: Tmax", "result": 0.083, "unit": "h"}, {"measurement": "Vd", "setting": "[2]; [6]", "result": 0.69, "unit": "L/kg"}, {"measurement": "half-life", "setting": "[2]; male, ICR, mouse, plasma, iv, 2 mg/kg, ICR mice, IV 2 mg/kg, mean of 3 animals, read-out: t1/2 (converted)", "result": 1.08, "unit": "h"}, {"measurement": "AUC(0-inf)", "setting": "[2]; [7]", "result": 2770, "unit": "ng·h/mL"}, {"measurement": "Cmax", "setting": "[2]; male, ICR, mouse, plasma, po, 5 mg/kg, ICR mice, PO 5 mg/kg, individual animal, read-out: Cmax", "result": 2430, "unit": "ng/mL"}, {"measurement": "MRT last", "setting": "[2]; [7]", "result": 1.57, "unit": "h"}, {"measurement": "MRT inf", "setting": "[2]; [7]", "result": 2.85, "unit": "h"}, {"measurement": "Tmax", "setting": "[2]; male, ICR, mouse, plasma, po, 5 mg/kg, ICR mice, PO 5 mg/kg, individual animal, read-out: Tmax", "result": 0.25, "unit": "h"}, {"measurement": "half-life", "setting": "[2]; male, ICR, mouse, plasma, po, 5 mg/kg, ICR mice, PO 5 mg/kg, individual animal, read-out: t1/2 (converted)", "result": 3.58, "unit": "h"}, {"measurement": "AUC(0-inf)", "setting": "[2]; [8]", "result": 3930, "unit": "ng·h/mL"}, {"measurement": "AUC(0-t)", "setting": "[2]; male, ICR, mouse, plasma, po, 5 mg/kg, ICR mice, PO 5 mg/kg, mean of 3 animals, read-out: AUC(0-t)", "result": 3530, "unit": "ng·h/mL"}, {"measurement": "Cmax", "setting": "[2]; male, ICR, mouse, plasma, po, 5 mg/kg, ICR mice, PO 5 mg/kg, mean of 3 animals, read-out: Cmax", "result": 2230, "unit": "ng/mL"}, {"measurement": "MRT last", "setting": "[2]; [8]", "result": 1.84, "unit": "h"}, {"measurement": "MRT inf", "setting": "[2]; [8]", "result": 2.95, "unit": "h"}, {"measurement": "Tmax", "setting": "[2]; male, ICR, mouse, plasma, po, 5 mg/kg, ICR mice, PO 5 mg/kg, mean of 3 animals, read-out: Tmax", "result": 0.33, "unit": "h"}, {"measurement": "half-life", "setting": "[2]; male, ICR, mouse, plasma, po, 5 mg/kg, ICR mice, PO 5 mg/kg, mean of 3 animals, read-out: t1/2 (converted)", "result": 3.09, "unit": "h"}, {"measurement": "AUC(0-t)", "setting": "[2]; male, ICR, mouse, plasma, po, 5 mg/kg, oral intragastric administration 5 mg/kg, read-out: AUC0-t", "result": 3530, "unit": "ng·h/mL"}, {"measurement": "half-life", "setting": "[2]; male, ICR, mouse, plasma, po, 5 mg/kg, oral intragastric administration 5 mg/kg, read-out: half-life (converted)", "result": 3.09, "unit": "h"}, {"measurement": "bioavailability", "setting": "[2]; male, mouse, plasma, ICR mice, PO 5 mg/kg vs IV 2 mg/kg, from mean values, read-out: F* (bioavailability)", "result": 31.2, "unit": "%"}, {"measurement": "IC50", "setting": "MDM2", "result": 1.31, "unit": "nM"}]}
